From patent EP2686338B1, “FUNCTIONALIZED BIOMATERIALS FOR TISSUE REGENERATION” (Nanomed3d S.r.l., priority 2011, dated 2018)
“Also recorded” adds a separate entry of the source. Residues, ends and D or L forms follow the SMILES beside them.

Assays:
murine NSCs [1] = assay: Immunofluorescence of differentiated NSC progeny on scaffolds, murine NSCs; type: cell-based; conditions: for percentages of neurons (βIIITubulin positive cells): scaffolds of stiffness 100, 500 and 1000 Pa, best values, softer scaffolds; for differentiated neurons (βIIITubulin positive cells) versus scaffold stiffness: stiffness 100, 500 and 1000 Pa, P<0.05, P<0.01
Protocol: (§1) In vitro tests were performed as previously described (8), in order to assess whether the biomaterials (assembled hydrogels) obtained with the SAPs of the present invention influenced NSCs adhesion, survival and/or differentiation. SAPeptides (30 µl for each well at a concentration of 10 mg/ml) were assembled into 96 multiwells two hours before cell. Cells (at a concentration of 2x10^4 cells/cm^2) were seeded on the top-surface of each assembled scaffold. Initially, cells were cultured with basal medium supplemented with βFGF (10 ng/ml), added to enhance neuronal progeny differentiation. At 3 days in vitro (DIV), βFGF medium was replaced with Leukemia Inhibitory Factor (LIF, Chemicon) (20 ng/ml) and Brain Derived Neurotrophic Factor (BDNF, Peprotech) (20 ng/ml). Fresh medium was added every three days. For both viability and differentiation assays positive and negative controls consisted of Cultrex-BME® substrate (R&D systems) (1:100 dilution in basal medium) and untreated bottom well surfaces respectively. Cell viability was quantified via CellTiter 96® Aqueous Proliferation Assay (Promega) at 7 DIV as recommended in the Promega protocol. After calibrating the linear response between the cell number and absorbance values, proliferated cell populations were quantified (n=5) by using a Vmax microplate reader (Molecular Devices) at 490nm wavelength. Values, reported as means ± standard error of the mean, were blanked to their respective controls consisting of same substrates and cell culture media without cells.
(§2) Immunofluorescence tests were performed for assaying the phenotypes of the differentiated human and murine NSC progenies. In the case of KLP and Ac-KLP just murine NSC have been used. Ac-KLP and KLP scaffolds were prepared at different concentrations in order to display three different stiffness values (viz. 100, 500 and 1000 Pa). This was done to assess the influence of scaffold concentration (and consequently its stiffness) over NSC differentiation. All the other peptides were tested at 1% v/w concentration instead. The following antibodies were used: rabbit polyclonal against GFAP (1:500, DakoCytomation) for astrocytes, mouse monoclonal against βIII-Tubulin (1:500, Covance) for neurons, mouse monoclonal against GalC (1:200, Chemicon) and O4 (1:200, Chemicon) for oligodendrocyes. Secondary Abs were Goat anti Mouse Alexa 488 (1:1000, Molecular Probes), Goat anti Mouse Cy3 (1:1000, Jackson Immunoresearch), Goat anti Rabbit Cy3 (1:1000, Jackson Immunoresearch). Cell nuclei were counterstained with DAPI (Molecular Probes). Quantitative analyses were performed by counting 100-300 cells for each of 9 randomly chosen fields over a total of 3 independent experiments. Phase contrast and fluorescence images of the adhering cells were acquired via Zeiss microscopes Axioplan 2 and ApoTome System at one week after seeding.

[2] = Rheology (frequency, time and strain sweeps); type: physicochemical; conditions: for G' pre-assembling: average storage modulus of SAPeptide solution, before PBS; for G' pre-assembling / G' post-assembling: 1-100 Hz; for G' post-assembling: average storage modulus of jellified scaffold, after PBS; for Onset point (% strain): strain percentage at rupture, strain sweep at 1 Hz, 25 C
Protocol: Rheological properties of the self-assembling peptides of the invention were determined using a controlled stress TA Instruments AR-2000ex rheometer (TA Instruments). A cone-and-plate geometry (acrylic cone diameter, 20 mm; angle, 1°; truncation gap 34 µm) was used. Preliminary strain sweeps were performed for each sample to define the linear viscoelastic region, thus ensuring that moduli were independent of strain. Time sweeps, after addition of PBS (1x) were recorded at 25 C (angular frequency ω=1 Hz) and continued till G' plateaued. Frequency sweeps, both for peptide water solutions and for self-assembled scaffolds, were performed at 25 C with the instrument in oscillatory mode at controlled strain of 1 %. Final strain sweeps was performed at 1Hz oscillatory frequency and at 25 C: onset point of failure was calculated by linear interpolation and subsequent determination of the intersection of the G' modes within the linear region and at material failure respectively.

human NSCs [3] = assay: Immunofluorescence of differentiated NSC progeny on scaffolds, human NSCs; type: cell-based; conditions: 1% scaffold; compared to Cultrex positive control
Protocol: as §1
as §2, with “Cell nuclei were counterstained with DAPI (Molecular Probes).” left out

murine NSCs [4] = assay: Imaging and cell proliferation (MTS) assay on assembled scaffolds, murine NSCs; type: cell-based; conditions: for cell morphology, adhesion and spreading: 7 DIV on assembled hydrogels; for cell viability (MTS, cell population): 7 DIV, scaffolds 10 mg/ml, vs control, P<0.005, n=5
Protocol: as §1

human NSCs [5] = assay: Imaging and cell proliferation (MTS) assay on assembled scaffolds, human NSCs; type: cell-based; conditions: for cell viability (MTS, cell population): 7 DIV, scaffolds 10 mg/ml, vs control, P<0.03, n=5
Protocol: as §1

[6] = 1% scaffold, compared to Cultrex positive control

| G' and G" values at different concentrations ([2]; 1% w/v, 2% w/v and 3% w/v) | G' pre-assembling ([2]; 1% w/v) | G' post-assembling ([2]; 1% w/v) | Onset point (% strain) [2] | Structure (SMILES) | percentages of neurons (βIIITubulin positive cells) (murine NSCs [1]) | differentiated neurons (βIIITubulin positive cells) versus scaffold stiffness (murine NSCs [1]) | number of neurons (murine NSCs [1]; [6]) | number of oligodendrocytes (murine NSCs [1]; [6]) | number of neurons (human NSCs [3]) | number of oligodendrocytes (human NSCs [3]) | cell morphology, adhesion and spreading (murine NSCs [4]) | cell viability (MTS, cell population) (murine NSCs [4]) | cell morphology, adhesion and spreading (human NSCs [5]; 7 DIV on assembled hydrogels) | cell viability (MTS, cell population) (human NSCs [5]) |
| --- | --- | --- | --- | --- | --- | --- | --- | --- | --- | --- | --- | --- | --- | --- |
| increased with concentration increments | 2.88 Pa | 91.2 Pa | 47.82% | CC(=O)N[C@@H](CCCCN)C(=O)N[C@@H](CC(C)C)C(=O)N1CCC[C@H]1C(=O)NCC(=O)N[C@@H](Cc1c[nH]c2ccccc12)C(=O)N[C@@H](CO)C(=O)NCC(=O)NCC(=O)NCC(=O)NCC(=O)N[C@@H](CC(C)C)C(=O)N[C@@H](CC(=O)O)C(=O)N[C@@H](CC(C)C)C(=O)N[C@@H](CCCCN)C(=O)N[C@@H](CC(C)C)C(=O)N[C@@H](CC(=O)O)C(=O)N[C@@H](CC(C)C)C(=O)N[C@@H](CCCCN)C(=O)N[C@@H](CC(C)C)C(=O)N[C@@H](CC(=O)O)C(=O)N[C@@H](CC(C)C)C(=O)N[C@@H](CCCCN)C(N)=O [Ac-KLP, Ac-KLPGWSG-GGG-LDLKLDLKLDLK-CONH2] (Ac-KLPGWSGGGGLDLKLDLKLDLK-NH2) | above 50% | significant increments of differentiated neurons | – | – | – | – | – | – | – | – |
| – | 2.68 Pa | 166.7 Pa | 10.16% | CC(=O)N[C@@H](CCC(N)=O)C(=O)N[C@@H](Cc1c[nH]cn1)C(=O)N[C@@H](CC(C)C)C(=O)N1CCC[C@H]1C(=O)N[C@@H](CCCNC(=N)N)C(=O)N[C@@H](CC(=O)O)C(=O)N[C@@H](Cc1c[nH]cn1)C(=O)NCC(=O)NCC(=O)NCC(=O)N[C@@H](CC(C)C)C(=O)N[C@@H](CC(=O)O)C(=O)N[C@@H](CC(C)C)C(=O)N[C@@H](CCCCN)C(=O)N[C@@H](CC(C)C)C(=O)N[C@@H](CC(=O)O)C(=O)N[C@@H](CC(C)C)C(=O)N[C@@H](CCCCN)C(=O)N[C@@H](CC(C)C)C(=O)N[C@@H](CC(=O)O)C(=O)N[C@@H](CC(C)C)C(=O)N[C@@H](CCCCN)C(N)=O [Ac-QHL, Ac-QHLPRDH-GGG-LDLKLDLKLDLK-CONH2] (Ac-QHLPRDHGGGLDLKLDLKLDLK-NH2) | – | – | – | – | – | – | – | – | – | – |
| – | 6.72 Pa | 267.3 Pa | 26.12% | CC(=O)N[C@@H](CO)C(=O)N[C@@H](CO)C(=O)N[C@@H](CC(C)C)C(=O)N[C@@H](CO)C(=O)N[C@H](C(=O)N[C@@H](CC(N)=O)C(=O)N[C@@H](CC(=O)O)C(=O)NCC(=O)NCC(=O)NCC(=O)N[C@@H](CC(C)C)C(=O)N[C@@H](CC(=O)O)C(=O)N[C@@H](CC(C)C)C(=O)N[C@@H](CCCCN)C(=O)N[C@@H](CC(C)C)C(=O)N[C@@H](CC(=O)O)C(=O)N[C@@H](CC(C)C)C(=O)N[C@@H](CCCCN)C(=O)N[C@@H](CC(C)C)C(=O)N[C@@H](CC(=O)O)C(=O)N[C@@H](CC(C)C)C(=O)N[C@@H](CCCCN)C(N)=O)C(C)C [Ac-SSL, Ac-SSLSVND-GGG-LDLKLDLKLDLK-CONH2] (Ac-SSLSVNDGGGLDLKLDLKLDLK-NH2) | – | – | – | – | – | – | – | – | – | – |
| – | 6.66 Pa | 142.7 Pa | 25.43% | CC(C)C[C@H](NC(=O)CNC(=O)CNC(=O)CNC(=O)[C@@H]1CCCN1C(=O)[C@@H]1CCCN1C(=O)[C@@H](NC(=O)[C@H](CCCNC(=N)N)NC(=O)[C@H](CCC(N)=O)NC(=O)[C@H](C)NC(=O)[C@@H](N)Cc1ccccc1)C(C)C)C(=O)N[C@@H](CC(=O)O)C(=O)N[C@@H](CC(C)C)C(=O)N[C@@H](CCCCN)C(=O)N[C@@H](CC(C)C)C(=O)N[C@@H](CC(=O)O)C(=O)N[C@@H](CC(C)C)C(=O)N[C@@H](CCCCN)C(=O)N[C@@H](CC(C)C)C(=O)N[C@@H](CC(=O)O)C(=O)N[C@@H](CC(C)C)C(=O)N[C@@H](CCCCN)C(N)=O [FAQ, NH2-FAQRVPP-GGG-LDLKLDLKLDLK-CONH2] (H-FAQRVPPGGGLDLKLDLKLDLK-NH2) | – | – | significantly higher | significantly higher | significantly higher | significantly higher | spread and branched cells | significantly fostered cell viability; also recorded: cell population was bigger | spread and branched cells | significantly fostered cell viability; also recorded: cell population was bigger |
| – | 3.30 Pa | 51.38 Pa | 56.46% | CC(C)C[C@H](NC(=O)CNC(=O)CNC(=O)CNC(=O)CNC(=O)[C@H](CO)NC(=O)[C@H](Cc1c[nH]c2ccccc12)NC(=O)CNC(=O)[C@@H]1CCCN1C(=O)[C@H](CC(C)C)NC(=O)[C@@H](N)CCCCN)C(=O)N[C@@H](CC(=O)O)C(=O)N[C@@H](CC(C)C)C(=O)N[C@@H](CCCCN)C(=O)N[C@@H](CC(C)C)C(=O)N[C@@H](CC(=O)O)C(=O)N[C@@H](CC(C)C)C(=O)N[C@@H](CCCCN)C(=O)N[C@@H](CC(C)C)C(=O)N[C@@H](CC(=O)O)C(=O)N[C@@H](CC(C)C)C(=O)N[C@@H](CCCCN)C(N)=O [KLP, NH2-KLPGWSG-GGG-LDLKLDLKLDLK-CONH2] (H-KLPGWSGGGGLDLKLDLKLDLK-NH2) | above 50% | significant increments of differentiated neurons | – | – | – | – | fostered NSCs adhesion and spreading similarly to FAQ | – | – | – |
| – | 4.53 Pa | 296.9 Pa | 28.58% | CC(C)C[C@H](NC(=O)CNC(=O)CNC(=O)CNC(=O)[C@H](Cc1c[nH]cn1)NC(=O)[C@H](CC(=O)O)NC(=O)[C@H](CCCNC(=N)N)NC(=O)[C@@H]1CCCN1C(=O)[C@H](CC(C)C)NC(=O)[C@H](Cc1c[nH]cn1)NC(=O)[C@@H](N)CCC(N)=O)C(=O)N[C@@H](CC(=O)O)C(=O)N[C@@H](CC(C)C)C(=O)N[C@@H](CCCCN)C(=O)N[C@@H](CC(C)C)C(=O)N[C@@H](CC(=O)O)C(=O)N[C@@H](CC(C)C)C(=O)N[C@@H](CCCCN)C(=O)N[C@@H](CC(C)C)C(=O)N[C@@H](CC(=O)O)C(=O)N[C@@H](CC(C)C)C(=O)N[C@@H](CCCCN)C(N)=O [QHL, NH2-QHLPRDH-GGG-LDLKLDLKLDLK-CONH2] (H-QHLPRDHGGGLDLKLDLKLDLK-NH2) | – | – | – | – | – | – | – | significantly fostered cell viability; also recorded: significantly favored | – | significantly fostered cell viability; also recorded: significantly favored |
| – | 9.01 Pa | 124.7 Pa | 17.78% | CC(C)C[C@H](NC(=O)CNC(=O)CNC(=O)CNC(=O)[C@H](CC(=O)O)NC(=O)[C@H](CC(N)=O)NC(=O)[C@@H](NC(=O)[C@H](CO)NC(=O)[C@H](CC(C)C)NC(=O)[C@H](CO)NC(=O)[C@@H](N)CO)C(C)C)C(=O)N[C@@H](CC(=O)O)C(=O)N[C@@H](CC(C)C)C(=O)N[C@@H](CCCCN)C(=O)N[C@@H](CC(C)C)C(=O)N[C@@H](CC(=O)O)C(=O)N[C@@H](CC(C)C)C(=O)N[C@@H](CCCCN)C(=O)N[C@@H](CC(C)C)C(=O)N[C@@H](CC(=O)O)C(=O)N[C@@H](CC(C)C)C(=O)N[C@@H](CCCCN)C(N)=O [SSL, NH2-SSLSVND-GGG-LDLKLDLKLDLK-CONH2] (H-SSLSVNDGGGLDLKLDLKLDLK-NH2) | – | – | – | – | – | – | – | – | – | – |
